Assay results from PMC11855827, “High-Throughput Screening of Five Compound Libraries for Anthelmintic Activity and Toxicity Leads to the Discovery of Two Flavonoid Compounds” (International Journal of Molecular Sciences, 2025).
Several values for one entry are separate records, joined by “and”; a condition that tells them apart may be missing. Equal values may be shown once.

Tested on: C. elegans
Settings: Table S2, C. elegans SS assay, 110 μM, averages of 4 data points

Structure (SMILES)	Percentage of motility inhibition 0 h	Percentage of motility inhibition 24 h
C[C@@H]1O[C@@H](Oc2cc(O)c3c(c2)O[C@H](c2ccc(O)c(O)c2)[C@@H](O)C3=O)[C@H](O)[C@H](O)[C@H]1O [Taxifolin 7‐O‐rhamnoside]	33%	12%
COc1cc(O)c2c(=O)cc(-c3ccccc3)oc2c1 [Tecto chrysin]	0%	11%
COc1c(O[C@@H]2O[C@H](CO[C@@H]3OC[C@@H](O)[C@H](O)[C@H]3O)[C@@H](O)[C@H](O)[C@H]2O)cc2occ(-c3ccc(O)cc3)c(=O)c2c1O [Tectorigenin 7‐O‐Xylosyl Glucoside]	0%	1%
Cn1nnc(-c2ccc(-c3ccc(N4C[C@H](COP(=O)(O)O)OC4=O)cc3F)cn2)n1 [Tedizolid (phosphate)]	10%	12%
CC(C)OC(=O)OCOP(=O)(CO[C@H](C)Cn1cnc2c(N)ncnc21)OCOC(=O)OC(C)C.O=C(O)/C=C/C(=O)O [Tenofovir (Disoproxil Fumarate)]	5%	1%
CC(C)OC(=O)OCOP(=O)(CO[C@H](C)Cn1cnc2c(N)ncnc21)OCOC(=O)OC(C)C [Tenofovir (Disoproxil)]	23%	7%
COc1cc(/C=C/C(=O)O[C@H]2[C@H](O)[C@@H](CO)O[C@@]2(CO)O[C@H]2O[C@H](COC(=O)c3ccc(O)cc3)[C@@H](O)[C@H](O)[C@H]2O)cc(OC)c1OC [Tenuifoliside A]	0%	15%
CC1(C)CC[C@]2(C(=O)O)CCC3=C([C@@H](CCl)C[C@@H]4[C@@]5(C)C[C@H](O)[C@H](O)[C@@](C)(C(=O)O)[C@@H]5CC[C@@]34C)[C@@H]2C1 [Tenuigenin]	11%	11%
CC1(O)CCC(C(C)(C)O)CC1.O (centres unmarked) [Terpin (hydrate)]	9%	5%
CN(C)[C@@H]1C(=O)C(C(N)=O)=C(O)[C@@]2(O)C(=O)C3=C(O)c4c(O)cccc4[C@@](C)(O)[C@H]3C[C@@H]12.Cl [Tetracycline (hydrochloride)]	26%	11%
COc1cc2c(cc1OC)C1Cc3ccc4c(c3CN1CC2)OCO4 (centres unmarked) [Tetrahydroepiberberine]	10%	3%
COc1cc2c(cc1OC)C1Cc3ccc(OC)c(OC)c3CN1CC2.Cl (centres unmarked) [Tetrahydropalmatine (hydrochloride)]	0%	9% and 7%
O=C(O[C@@H]1Cc2c(O)cc(O)cc2O[C@@H]1c1cc(=O)c(O)c2c(O)c(O)cc([C@H]3Oc4cc(O)cc(O)c4C[C@H]3O)c2c1)c1cc(O)c(O)c(O)c1 [Theaflavin‐3‐gallate]	8%	22%
O=c1cccc2n1C[C@H]1C[C@@H]2CN2CCCC[C@@H]12 [Thermopsine]	0%	2%
Cc1ncc(C[n+]2csc(CCO)c2C)c(N)n1.Cl.[Cl-] [Thiamine (hydrochloride)]	2%	13%
Cc1ncc(C[n+]2csc(CCO)c2C)c(N)n1.O=[N+]([O-])[O-] [Thiamine nitrate]	12%	1%
C=C[C@]1(C)C[C@@H](OC(=O)CSCCN(CC)CC)[C@]2(C)[C@H](C)CC[C@]3(CCC(=O)[C@H]32)[C@@H](C)[C@@H]1O.O=C(O)/C=C/C(=O)O [Tiamulin (fumarate)]	9%	9%
C/C=C(\C)C(=O)OC1C[C@H]2CC[C@@H](C1)N2C (some centres unmarked) [Tigloidin]	0%	0%
COc1ccc(-c2cc(=O)c3c(O)cc(O[C@@H]4O[C@H](CO)[C@@H](O)[C@H](O)[C@H]4O)cc3o2)cc1 [Tilianin]	13%	3%
CC[C@H]1OC(=O)C[C@@H](O)[C@H](C)[C@@H](O[C@@H]2O[C@H](C)[C@@H](O)[C@H](N(C)C)[C@H]2O)[C@@H](CCN2C[C@H](C)C[C@H](C)C2)C[C@@H](C)C(=O)/C=C/C(C)=C/[C@@H]1CO[C@@H]1O[C@H](C)[C@@H](O)[C@@H](OC)[C@H]1OC.O=P(O)(O)O [Tilmicosin (phosphate)]	6%	10%

Structure (SMILES)	Percentage of motility inhibition 0 h	Percentage of motility inhibition 24 h
CC(C)=CCC[C@H](C)[C@@H]1CC[C@]2(C)C3=C(CC[C@@]12C)[C@@]1(C)CC[C@H](O)C(C)(C)[C@@H]1CC3 [Tirucallol]	12%	39%
Cl.c1ccc(CC2=NCCN2)cc1 [Tolazoline (hydrochloride)]	21%	0%
Cc1cc(-n2c(=O)[nH]c(=O)n(C)c2=O)ccc1Oc1ccc(S(=O)(=O)C(F)(F)F)cc1 [Toltrazuril (sulfone)]	38%	12%
CC[C@@]1(O)C(=O)OCc2c1cc1n(c2=O)Cc2cc3c(CN(C)C)c(O)ccc3nc2-1.Cl [Topotecan (Hydrochloride)]	5%	3%
CC[C@@]1(O)C(=O)OCc2c1cc1n(c2=O)Cc2cc3c(CN(C)C)c(O)ccc3nc2-1.Cl [Topotecan (hydrochloride)]	19%	6%
O=c1cc(-c2ccccc2)oc2cc(O)cc(O[C@@H]3O[C@H](CO)[C@@H](O)[C@H](O)[C@H]3O)c12 [Toringin]	0%	2%
C[C@@H]1CC[C@]2(C(=O)O)CC[C@]3(C)C(=CC[C@@H]4[C@@]5(C)C[C@@H](O)[C@H](O)C(C)(C)[C@@H]5CC[C@]43C)[C@@H]2[C@]1(C)O [Tormentic acid]	3%	5%
NC1CCN(c2nc3c(cc2F)c(=O)c(C(=O)O)cn3-c2ccc(F)cc2F)C1 (centres unmarked) [Tosufloxacin (tosylate hydrate)]	44%	36%
O=C(/C=C/c1ccc(O)cc1)OC[C@H]1O[C@@H](Oc2c(-c3ccc(O)cc3)oc3cc(O)cc(O)c3c2=O)[C@H](O)[C@@H](O)[C@@H]1O [Tribuloside]	13%	16%
Cc1c(O)c(O)cc2c1CC=C1[C@@]2(C)CC[C@@]2(C)[C@@H]3C[C@](C)(C(=O)O)CC[C@]3(C)CC[C@]12C [Triptohypol C]	0%	43%
CC(C)[C@]12O[C@H]1[C@@H]1O[C@@]13[C@@]1(C)CCC4=C(COC4=O)[C@@H]1C[C@@H]1O[C@@]13C2=O [Triptonide]	7%	13%
C[C@@H]1O[C@@H](OC[C@H]2O[C@@H](Oc3c(-c4ccc(OCCO)c(OCCO)c4)oc4cc(OCCO)cc(O)c4c3=O)[C@H](O)[C@@H](O)[C@@H]2O)[C@H](O)[C@H](O)[C@H]1O [Troxerutin]	0% and 3%	0% and 6%
CC(=O)O[C@@H]1CC[C@]2(C)C3=C(CC[C@H]2C1(C)C)[C@]1(C)CC[C@H]([C@@H](CCC=C(C)C)C(=O)O)[C@@]1(C)CC3 [Tsugaric acid A]	12%	12%
C[C@@H]1O[C@H]2O[C@H]3[C@@H](OC[C@H](O)[C@@H]3O)OC(=O)[C@]34CCC(C)(C)C[C@H]3C3=CC[C@@H]5[C@@]6(C)C[C@H](O)[C@H](O[C@@H]7O[C@H](CO)[C@@H](O)[C@H](O)[C@H]7O[C@@H]7O[C@@H](COC(=O)C[C@](C)(O)CC(=O)O[C@@H]1[C@@H](O[C@@H]1OC[C@@H](O)[C@H](O)[C@H]1O)[C@H]2O)[C@H](O)[C@@H](O)[C@@H]7O)[C@@](C)(CO)[C@@H]6CC[C@@]5(C)[C@]3(C)C[C@H]4O [Tubeimoside III]	0%	36%
CC1OC2OC3C(OCC(O)C3O)OC(=O)C34CCC(C)(C)CC3C3=CCC5C6(C)CC(O)C(OC7OC(CO)C(O)C(O)C7OC7OCC(OC(=O)CC(C)(O)CC(=O)OC1C(OC1OCC(O)C(O)C1O)C2O)C(O)C7O)C(C)(CO)C6CCC5(C)C3(C)CC4O (centres unmarked) [Tubeimoside II]	0%	2%
CCCNC[C@]1(O)[C@H](C)O[C@@H](O[C@H]2[C@H](C)[C@@H](O[C@@H]3O[C@H](C)C[C@H](N(C)C)[C@H]3O)[C@](C)(O)C[C@@H](C)CN[C@H](C)[C@@H](O)[C@](C)(O)[C@@H](CC)OC(=O)[C@@H]2C)C[C@@]1(C)OC [Tulathromycin A]	20%	9%
C=C1[C@H](OC(=O)/C=C(\C)CC)C[C@@H](C(C)C)[C@@H]2[C@@H]([C@@H](C)OC(C)=O)C(=O)C[C@@H]12 [Tussilagone]	12%	31%
CC[C@H]1OC(=O)C[C@@H](O)[C@H](C)[C@@H](O[C@@H]2O[C@H](C)[C@@H](O[C@H]3C[C@@](C)(O)[C@@H](O)[C@H](C)O3)[C@H](N(C)C)[C@H]2O)[C@@H](CC=O)C[C@@H](C)C(=O)/C=C/C(C)=C/[C@@H]1CO[C@@H]1O[C@H](C)[C@@H](O)[C@@H](OC)[C@H]1OC.O=C(O)C(O)C(O)C(=O)O [Tylosin (tartr ate)]	0%	1%
COc1cc(-c2oc3cc(O)cc(O)c3c(=O)c2O[C@@H]2O[C@H](CO[C@@H]3O[C@@H](C)[C@H](O)[C@@H](O)[C@H]3O)[C@@H](O)[C@H](O)[C@H]2O[C@@H]2O[C@@H](C)[C@H](O)[C@@H](O)[C@H]2O)ccc1O [Typhaneoside]	26%	15%
CC1=CC(=O)C2(C(C)C)CC12 (centres unmarked) [Umbellulone]	0%	1%
